Where a SMILES comes first, the peptide text is derived from it. [ ]: non-standard residue; d: D form. βAla = NCCC(=O)O
Key:
hMSCs = test: Cell growth and viability within peptide-crosslinked hydrogels; format: cell-based, human; conditions: 3.5% 8-arm PEG, 40% arms crosslinking peptide, 10% cyclic RGD, 20 million cells mL^−1, up to Day 7
Excerpt: (§1) Each of the peptides was then used to crosslink hydrogels containing hMSCs or hUVECs at 20 million cells mL^−1 and cultured for 1, 3, or 7 days. To maximize cell spreading, we made soft hydrogels that were 3.5% 8‐arm poly(ethylene glycol) (PEG) by weight. 40% of the arms were reacted with the crosslinking peptides, and 10% of the arms were functionalized with a cyclic RGD peptide for cell adhesion. […] This supports the inhibitor studies for the soluble peptides in which the MMP‐14 inhibitor completely abolished the degradation of the KLVAD‐LM peptide by hUVECs, but not the PanMMP peptide. (Figure 3C).
(§2) For all hydrogel studies, the total volume of hydrogel was 20 µL, made with 3.5% (wt/wt) PEG, 40% of the arms were functionalized with crosslinking peptides, and 10% were functionalized with cyclic‐RGD, with a final cell concentration of 20 million cells per mL. Briefly, the PEG was dissolved at 140 mg mL^−1 in PBS, the crosslinking peptides were dissolved at 22.4 mM in PBS, and the cyclic RGD was dissolved at 5.6 mM in PBS. hMSCs were harvested from T‐75 flasks. After centrifugation and pouring the supernatant liquid, the cells were resuspended at 80 000 000 or 4 000 000 cells mL^−1. The cyclic RGD and PEG PBS solutions were mixed at the ratio of 1:1. Add 10 µL of the PEG‐cyclic RGD mixer in the wells and incubate for 10 mins. The crosslinking peptides and cell solutions were mixed at a ratio of 1:1. 10 µL of the peptide‐cell mixture was pipetted into the PEG‐cyclic RGD mixer previously dropped in the wells. The solutions were pipetted until well mixed, and after 15 min in the incubator 1 mL of media was added into each well and kept in the incubator. For gels intended for imaging, 12 mm round glass coverslips were placed in each well of the 24‐well plates prior to hydrogel fabrication. For cell viability test, sylgard layers were prepared in 24 well plates to prevent unwanted cell growth on the bottom of the well wall. Sylgard kit Part A/Part B was mixed in a 10:1 ratio by volume, and the mixture was added to the 24 well plates such that the bottom of each well was completely covered by Sylgard. The plates were placed in a biosafety hood overnight with UV light on. For all studies, three technical replicates were done per condition, and the studies were repeated three times.
(§3) The hydrogels were washed with PBS three times and incubated in 4% formaldehyde in PBS for 20 min. The hydrogels were again washed with PBS three times, followed by an incubation in 0.25% Triton X‐100 in PBS solution for 20 min. The hydrogels were washed with PBS three times, followed by a 20‐min incubation of in 1% BSA in PBS. The gels were washed 3x in PBS, and 700 µL of Phalloidin/DAPI PBS staining solution (0.1% BSA, 1 µg mL^−1 DAPI, and 1 µg mL^−1 phalloidin‐iFluor 555) was added to each well, and it was incubated for 1 h in the dark at room temperature. The hydrogels were washed 3x, and 1 mL PBS was added to each well, and they were stored in a 4 °C until they were ready for imaging.
(§4) Hydrogels were imaged by confocal microscope (LSM 800, AxioObserver, EC Olan‐Neofluar 10x/0.3 objective). The 12 mm round slides with hydrogels were taken out of 24 well plates and flipped gel side down on round‐bottom slides. Confocal microscopy was carried out in the Z‐stack mode. Phalloidin was excited at 488 nm and recorded between 493 and 630 nm. DAPI was excited at 405 nm and recorded between 410 and 501 nm. Cells in each hydrogel were measured with ImageJ software according to the particle analysis results and then averaged to obtain the mean cell area in the hydrogels.
(§5) On Days 1, 3, and 7, the media from the wells was removed and 500 µL of a 10× diluted Alamar Blue stock solution in media was added to each well with hydrogels. Three wells without any cells were used for background subtraction. The gels were incubated for 4 h, at which time the absorbance was measured with a spectrophotometer at a wavelength of 579 nm (600 nm reference). […]

hUVECs = test: as above; format: cell-based, human; conditions: 3.5% 8-arm PEG, 40% arms crosslinking peptide, 10% cyclic RGD, 20 million cells mL^−1, up to Day 7
Excerpt: as §1, §2, §3, §4, §5

SMILES | cell spreading, growth and viability of hMSCs in crosslinked hydrogels (hMSCs) | cell spreading, growth and viability of hUVECs in crosslinked hydrogels (hUVECs)
CSCC[C@H](NC(=O)[C@H](CC(C)C)NC(=O)[C@H](CC(=O)O)NC(=O)[C@H](C)NC(=O)[C@@H](NC(=O)[C@H](CC(C)C)NC(=O)[C@H](CCCCN)NC(=O)CCNC(C)=O)C(C)C)C(=O)N[C@@H](C)C(=O)N[C@@H](CO)C(=O)N[C@@H](C)C(=O)N[C@@H](CCC(=O)O)C(=O)NCCC(N)=O [KLVAD-LM] (Ac-[βAla]KLVADLMASAE[βAla]-NH2) | supported cell spreading and growth | supported cell spreading and growth
CC(=O)NCCC(=O)N[C@@H](CCCCN)C(=O)N[C@@H](CC(C)C)C(=O)N[C@H](C(=O)N[C@@H](C)C(=O)N[C@@H](CC(=O)O)C(=O)N[C@@H](CC(N)=O)C(=O)N[C@@H](Cc1ccc(O)cc1)C(=O)N[C@@H](C)C(=O)N[C@@H](CO)C(=O)N[C@@H](C)C(=O)N[C@@H](CCC(=O)O)C(=O)NCCC(N)=O)C(C)C [KLVAD-NY] (Ac-[βAla]KLVADNYASAE[βAla]-NH2) | no detectable cells | only minimal cell spreading
CC(=O)NCCC(=O)N[C@@H](CCCCN)C(=O)N[C@@H](CC(C)C)C(=O)N[C@H](C(=O)N[C@@H](C)C(=O)N[C@@H](CC(=O)O)C(=O)N1CCC[C@H]1C(=O)N[C@@H](Cc1ccc(O)cc1)C(=O)N[C@@H](C)C(=O)N[C@@H](CO)C(=O)N[C@@H](C)C(=O)N[C@@H](CCC(=O)O)C(=O)NCCC(N)=O)C(C)C [KLVAD-PY] (Ac-[βAla]KLVADPYASAE[βAla]-NH2) | less cell spreading and viability | less cell spreading and viability
